In the Kinase Knowledgebase extract (Sharma et al. 2016):

What was measured:
PIK3CA (human) [1] = biological target: PIK3CA (human) (UniProt P42336); test: Assessment of PIK3CA Kinase Activity Using One Step Solid Phase Assay
PIK3CA (human) [2] = biological target: PIK3CA (human) (UniProt P42336); test: Assessment of PIK3CA Kinase Activity Using Homogenous Solution Phase Assay

PIK3CA (human), sequence (P42336 whole entry, looked up): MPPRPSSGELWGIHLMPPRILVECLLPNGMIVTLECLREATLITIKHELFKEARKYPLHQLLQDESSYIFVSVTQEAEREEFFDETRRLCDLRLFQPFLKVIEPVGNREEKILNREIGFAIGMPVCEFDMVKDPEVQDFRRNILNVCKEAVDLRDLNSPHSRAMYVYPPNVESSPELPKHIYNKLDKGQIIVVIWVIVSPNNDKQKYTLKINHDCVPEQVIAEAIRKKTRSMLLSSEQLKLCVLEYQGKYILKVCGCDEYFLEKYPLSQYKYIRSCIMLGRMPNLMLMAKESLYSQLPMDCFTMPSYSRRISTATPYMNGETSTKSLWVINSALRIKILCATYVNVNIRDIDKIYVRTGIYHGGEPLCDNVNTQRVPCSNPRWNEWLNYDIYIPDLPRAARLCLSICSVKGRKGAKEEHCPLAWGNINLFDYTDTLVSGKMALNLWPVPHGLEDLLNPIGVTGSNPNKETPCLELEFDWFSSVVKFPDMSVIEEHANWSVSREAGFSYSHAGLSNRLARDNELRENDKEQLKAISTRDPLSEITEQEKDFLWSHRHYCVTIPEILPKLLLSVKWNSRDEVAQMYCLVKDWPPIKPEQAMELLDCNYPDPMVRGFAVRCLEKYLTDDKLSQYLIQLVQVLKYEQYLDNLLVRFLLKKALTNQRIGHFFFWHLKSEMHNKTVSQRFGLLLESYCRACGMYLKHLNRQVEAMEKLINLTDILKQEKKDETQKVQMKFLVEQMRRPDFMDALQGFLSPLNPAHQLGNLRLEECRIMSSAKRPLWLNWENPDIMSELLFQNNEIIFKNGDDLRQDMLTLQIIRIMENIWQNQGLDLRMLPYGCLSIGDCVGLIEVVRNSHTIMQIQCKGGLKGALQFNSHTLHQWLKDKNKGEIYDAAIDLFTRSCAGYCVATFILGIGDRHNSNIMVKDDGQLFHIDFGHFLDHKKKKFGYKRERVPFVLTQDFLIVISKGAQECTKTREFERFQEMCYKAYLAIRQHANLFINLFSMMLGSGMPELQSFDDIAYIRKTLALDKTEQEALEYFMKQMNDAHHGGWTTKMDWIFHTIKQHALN

IC50 (PIK3CA (human) [1])	IC50 (PIK3CA (human) [2])	Compound
< 20 µM	< 20 µM	Oc1ccc(Br)c(-c2cc(Nc3cccnc3)nc(N3CCOCC3)n2)c1
< 20 µM	< 20 µM	Cc1ccc(-c2cc(Nc3cccnc3)nc(N3CCOCC3)n2)cc1O
